Measured values taken from ChEMBL document CHEMBL4417633, “Inhibitory polypeptides specific to WNT inhibitors” (2017).
Active and inactive are the calls of the source. The calls are words filed in the database; no cut-off is given here. Where a SMILES comes first, the peptide text is derived from it.

How the values were obtained:
[1] = molecular target: T1, Dickkopf-related protein 1 (Homo sapiens, UniProt O94907); experiment: Inhibition of human DKK1 in MC3T3E1/TetON-Wnt1/STF-Luc#5 cells assessed as DKK1 neutralizing activity by Wnt1-induced TCF/LEF luciferase reporter gene assay
T1 sequence (O94907 whole entry): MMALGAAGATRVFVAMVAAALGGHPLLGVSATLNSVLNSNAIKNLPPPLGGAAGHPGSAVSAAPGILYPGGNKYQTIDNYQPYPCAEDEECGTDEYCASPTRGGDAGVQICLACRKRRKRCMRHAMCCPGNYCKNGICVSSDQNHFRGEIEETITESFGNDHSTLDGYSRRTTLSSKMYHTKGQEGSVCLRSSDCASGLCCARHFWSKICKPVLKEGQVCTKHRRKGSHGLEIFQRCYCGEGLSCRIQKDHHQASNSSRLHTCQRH

[2] = molecular target: T2, Dickkopf-related protein 1 (Homo sapiens) (UniProt O94907); experiment: (§1) Inhibition of biotin-labeled human recombinant DKK1 assessed as reduction in DKK1 interaction with LRP-6/Fc incubated overnight by chemiluminescence based Alpha-screen assay
T2 sequence (whole entry): T1 sequence (O94907 whole entry)

[3] = molecular target: T3, Dickkopf WNT-signaling pathway inhibitor 1 (Rattus norvegicus) (UniProt A6I0Z0); experiment: (§2) Inhibition of biotin-labeled rat recombinant DKK1 assessed as reduction in DKK1 interaction with LRP-6/Fc incubated overnight by chemiluminescence based Alpha-screen assay
T3 sequence (whole entry): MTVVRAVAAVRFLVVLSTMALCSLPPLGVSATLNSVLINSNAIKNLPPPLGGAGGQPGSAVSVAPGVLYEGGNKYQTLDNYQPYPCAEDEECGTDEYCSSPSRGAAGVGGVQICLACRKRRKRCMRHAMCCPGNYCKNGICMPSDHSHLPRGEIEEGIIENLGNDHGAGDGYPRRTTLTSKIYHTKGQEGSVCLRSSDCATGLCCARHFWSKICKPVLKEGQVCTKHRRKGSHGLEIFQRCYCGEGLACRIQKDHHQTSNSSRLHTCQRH

[4] = molecular target: T1, Dickkopf-related protein 1; experiment: as §1
[5] = molecular target: T4, Dickkopf WNT-signaling pathway inhibitor 1 (Rattus norvegicus, UniProt A6I0Z0); experiment: as §2
T4 sequence (A6I0Z0 whole entry): T3 sequence (whole entry)

IC50 [1]	inhibition [2]	inhibition [3]	IC50 [4]	IC50 [5]	SMILES
0.8 to 3 nM	Active	Active			CSCC[C@H](NC(=O)[C@@H]1CCCN1C(=O)[C@H](Cc1ccc(O)cc1)NC(=O)[C@H](CS)NC(=O)[C@H](Cc1cnc[nH]1)NC(=O)[C@@H]1CCCN1C(=O)[C@H](Cc1cnc[nH]1)NC(=O)[C@H](CC(N)=O)NC(=O)[C@H](CCCNC(=N)N)NC(=O)[C@H](CS)NC(=O)[C@H](CCCCN)NC(=O)[C@H](Cc1ccccc1)NC(=O)[C@H](Cc1ccc(O)cc1)NC(=O)[C@H](CO)NC(=O)[C@H](C)NC(=O)[C@@H]1CCCN1C(=O)[C@@H](N)CS)C(=O)N[C@@H](CCC(=O)O)C(=O)N[C@@H](Cc1c[nH]c2ccccc12)C(=O)N[C@@H](CCCNC(=N)N)C(=O)N[C@@H](CS)C(=O)N[C@@H](CC(=O)O)C(=O)NCC(=O)N[C@@H](Cc1ccccc1)C(=O)N[C@@H](C)C(=O)N[C@@H](CC(=O)O)C(=O)N[C@@H](CS)C(=O)N[C@H](C(=O)N[C@@H](CC(=O)O)C(=O)NCC(=O)N[C@@H](CO)C(=O)N[C@@H](CC(=O)O)C(=O)N[C@@H](CCC(=O)O)C(=O)N[C@@H](CC(C)C)C(=O)N[C@@H](CO)C(=O)N[C@@H](CS)C(=O)NCC(=O)NCC(=O)NCC(=O)NCC(=O)O)C(C)C (H-CPASYFKCRNHPHCYPMEWRCDGFADCVDGSDELSCGGGG-OH)
0.8 to 3 nM	Active	Active			CC[C@H](C)[C@H](NC(=O)[C@H](CS)NC(=O)[C@H](CC(=O)O)NC(=O)[C@@H]1CCCN1C(=O)[C@H](Cc1ccccc1)NC(=O)CNC(=O)[C@H](CC(=O)O)NC(=O)[C@H](CS)NC(=O)[C@H](CCCNC(=N)N)NC(=O)[C@H](Cc1c[nH]c2ccccc12)NC(=O)[C@H](CCC(=O)O)NC(=O)[C@H](CCSC)NC(=O)[C@@H]1CCCN1C(=O)[C@H](Cc1ccc(O)cc1)NC(=O)[C@H](CS)NC(=O)[C@H](Cc1cnc[nH]1)NC(=O)[C@@H]1CCCN1C(=O)[C@H](Cc1cnc[nH]1)NC(=O)[C@H](Cc1c[nH]c2ccccc12)NC(=O)[C@H](CCCNC(=N)N)NC(=O)[C@H](CS)NC(=O)[C@H](CCC(N)=O)NC(=O)[C@H](Cc1ccccc1)NC(=O)[C@H](Cc1ccc(O)cc1)NC(=O)[C@H](CO)NC(=O)[C@H](C)NC(=O)[C@@H]1CCCN1C(=O)[C@@H](N)CS)C(=O)N[C@@H](CC(=O)O)C(=O)NCC(=O)N[C@@H](CO)C(=O)N[C@@H](CC(=O)O)C(=O)N[C@@H](CCC(=O)O)C(=O)N[C@@H](CCC(=O)O)C(=O)N[C@@H](CO)C(=O)N[C@@H](CS)C(=O)NCC(=O)NCC(=O)NCC(=O)NCC(=O)O (H-CPASYFQCRWHPHCYPMEWRCDGFPDCIDGSDEESCGGGG-OH)
			≤ 1 nM	≤ 1 nM	CC[C@H](C)[C@H](NC(=O)[C@H](CCCNC(=N)N)NC(=O)[C@H](CS)NC(=O)[C@H](CCC(N)=O)NC(=O)[C@H](Cc1ccccc1)NC(=O)[C@H](Cc1ccc(O)cc1)NC(=O)[C@H](CO)NC(=O)[C@@H](NC(=O)[C@@H]1CCCN1C(=O)[C@@H](N)CS)C(C)C)C(=O)N[C@@H](Cc1ccc(O)cc1)C(=O)N[C@@H](CC(N)=O)C(=O)N[C@@H](Cc1cnc[nH]1)C(=O)N[C@@H](CS)C(=O)N[C@@H](Cc1ccc(O)cc1)C(=O)N1CCC[C@H]1C(=O)N[C@@H](CCSC)C(=O)N[C@@H](CCC(=O)O)C(=O)N[C@@H](Cc1c[nH]c2ccccc12)C(=O)N[C@@H](CCCNC(=N)N)C(=O)N[C@@H](CS)C(=O)N[C@@H](CC(=O)O)C(=O)NCC(=O)N[C@@H](Cc1ccccc1)C(=O)N[C@@H](CCC(=O)O)C(=O)N[C@@H](CC(=O)O)C(=O)N[C@@H](CS)C(=O)N[C@H](C(=O)N[C@@H](CC(=O)O)C(=O)NCC(=O)N[C@@H](CO)C(=O)N[C@@H](CC(=O)O)C(=O)N[C@@H](CCC(=O)O)C(=O)N[C@@H](CCCCN)C(=O)NCC(=O)N[C@@H](CS)C(=O)N1CCC[C@H]1C(=O)N[C@@H](Cc1ccc(O)cc1)C(=O)N[C@@H](CCCNC(=N)N)C(=O)N[C@H](C(=O)O)[C@@H](C)O)C(C)C (H-CPVSYFQCRIYNHCYPMEWRCDGFEDCVDGSDEKGCPYRT-OH)
			≤ 1 nM	≤ 1 nM	CSCC[C@H](NC(=O)[C@@H]1CCCN1C(=O)[C@H](Cc1ccc(O)cc1)NC(=O)[C@H](CS)NC(=O)[C@H](Cc1cnc[nH]1)NC(=O)[C@H](CCCCN)NC(=O)[C@H](Cc1ccccc1)NC(=O)[C@H](CC(N)=O)NC(=O)[C@H](Cc1c[nH]c2ccccc12)NC(=O)[C@H](CS)NC(=O)[C@H](CCC(N)=O)NC(=O)[C@H](Cc1ccccc1)NC(=O)[C@H](Cc1ccc(O)cc1)NC(=O)[C@H](CO)NC(=O)[C@H](C)NC(=O)[C@@H]1CCCN1C(=O)[C@@H](N)CS)C(=O)N[C@@H](CCC(=O)O)C(=O)N[C@@H](Cc1c[nH]c2ccccc12)C(=O)N[C@@H](CCCNC(=N)N)C(=O)N[C@@H](CS)C(=O)N[C@@H](CC(=O)O)C(=O)NCC(=O)N[C@@H](Cc1ccccc1)C(=O)N[C@@H](CC(N)=O)C(=O)N[C@@H](CC(=O)O)C(=O)N[C@@H](CS)C(=O)N[C@H](C(=O)N[C@@H](CC(=O)O)C(=O)NCC(=O)N[C@@H](CO)C(=O)N[C@@H](CC(=O)O)C(=O)N[C@@H](CCC(=O)O)C(=O)N[C@@H](CCCCN)C(=O)NCC(=O)N[C@@H](CS)C(=O)N1CCC[C@H]1C(=O)N[C@@H](Cc1ccc(O)cc1)C(=O)N[C@@H](CCCNC(=N)N)C(=O)N[C@H](C(=O)O)[C@@H](C)O)C(C)C (H-CPASYFQCWNFKHCYPMEWRCDGFNDCVDGSDEKGCPYRT-OH)
			≤ 1 nM	≤ 1 nM	CC[C@H](C)[C@H](NC(=O)[C@H](CCC(=O)O)NC(=O)[C@H](CC(=O)O)NC(=O)[C@H](CO)NC(=O)CNC(=O)[C@H](CC(=O)O)NC(=O)[C@@H](NC(=O)[C@H](CS)NC(=O)[C@H](CC(=O)O)NC(=O)[C@H](Cc1cnc[nH]1)NC(=O)[C@H](Cc1ccccc1)NC(=O)CNC(=O)[C@H](CC(=O)O)NC(=O)[C@H](CS)NC(=O)[C@H](CCCNC(=N)N)NC(=O)[C@H](Cc1c[nH]c2ccccc12)NC(=O)[C@H](CCC(=O)O)NC(=O)[C@H](CCSC)NC(=O)[C@@H]1CCCN1C(=O)[C@H](Cc1ccc(O)cc1)NC(=O)[C@H](CS)NC(=O)[C@H](Cc1cnc[nH]1)NC(=O)[C@H](CC(N)=O)NC(=O)[C@H](Cc1cnc[nH]1)NC(=O)[C@H](Cc1cnc[nH]1)NC(=O)[C@H](CCCNC(=N)N)NC(=O)[C@H](CS)NC(=O)[C@H](CCC(N)=O)NC(=O)[C@H](Cc1ccccc1)NC(=O)[C@H](Cc1ccc(O)cc1)NC(=O)[C@H](CO)NC(=O)[C@H](C)NC(=O)[C@@H]1CCCN1C(=O)[C@@H](N)CS)C(C)C)C(=O)NCC(=O)N[C@@H](CS)C(=O)N1CCC[C@H]1C(=O)N[C@@H](Cc1ccc(O)cc1)C(=O)N[C@@H](CCCNC(=N)N)C(=O)N[C@H](C(=O)O)[C@@H](C)O (H-CPASYFQCRHHNHCYPMEWRCDGFHDCVDGSDEIGCPYRT-OH)
			≤ 1 nM	≤ 1 nM	CSCC[C@H](NC(=O)[C@@H]1CCCN1C(=O)[C@H](Cc1ccc(O)cc1)NC(=O)[C@H](CS)NC(=O)[C@H](Cc1cnc[nH]1)NC(=O)[C@H](CC(N)=O)NC(=O)[C@H](CC(C)C)NC(=O)[C@H](Cc1cnc[nH]1)NC(=O)[C@H](CCCNC(=N)N)NC(=O)[C@H](CS)NC(=O)[C@H](CCCNC(=N)N)NC(=O)[C@H](Cc1ccccc1)NC(=O)[C@H](Cc1ccc(O)cc1)NC(=O)[C@H](CO)NC(=O)[C@@H](NC(=O)[C@@H]1CCCN1C(=O)[C@@H](N)CS)C(C)C)C(=O)N[C@@H](CCC(=O)O)C(=O)N[C@@H](Cc1c[nH]c2ccccc12)C(=O)N[C@@H](CCCNC(=N)N)C(=O)N[C@@H](CS)C(=O)N[C@@H](CC(=O)O)C(=O)NCC(=O)N[C@@H](Cc1ccccc1)C(=O)N[C@@H](CC(C)C)C(=O)N[C@@H](CC(=O)O)C(=O)N[C@@H](CS)C(=O)N[C@H](C(=O)N[C@@H](CC(=O)O)C(=O)NCC(=O)N[C@@H](CO)C(=O)N[C@@H](CC(=O)O)C(=O)N[C@@H](CCC(=O)O)C(=O)N[C@@H](CCC(=O)O)C(=O)NCC(=O)N[C@@H](CS)C(=O)N1CCC[C@H]1C(=O)N[C@@H](Cc1ccc(O)cc1)C(=O)N[C@@H](CCCNC(=N)N)C(=O)N[C@H](C(=O)O)[C@@H](C)O)C(C)C (H-CPVSYFRCRHLNHCYPMEWRCDGFLDCVDGSDEEGCPYRT-OH)
			40 to 80 nM	40 to 80 nM	CSCC[C@H](NC(=O)[C@@H]1CCCN1C(=O)[C@H](Cc1ccc(O)cc1)NC(=O)[C@H](CS)NC(=O)[C@H](Cc1cnc[nH]1)NC(=O)[C@H](CC(N)=O)NC(=O)[C@H](CC(N)=O)NC(=O)[C@H](CC(N)=O)NC(=O)[C@H](CCCNC(=N)N)NC(=O)[C@H](CS)NC(=O)[C@H](CCC(N)=O)NC(=O)[C@H](Cc1ccccc1)NC(=O)[C@H](Cc1ccc(O)cc1)NC(=O)[C@H](CO)NC(=O)[C@H](C)NC(=O)[C@@H]1CCCN1C(=O)[C@@H](N)CS)C(=O)N[C@@H](CCC(=O)O)C(=O)N[C@@H](Cc1c[nH]c2ccccc12)C(=O)N[C@@H](CCCNC(=N)N)C(=O)N[C@@H](CS)C(=O)N[C@@H](CC(=O)O)C(=O)NCC(=O)N[C@@H](Cc1ccccc1)C(=O)N[C@@H](CCC(N)=O)C(=O)N[C@@H](CC(=O)O)C(=O)N[C@@H](CS)C(=O)N[C@@H](CCC(=O)O)C(=O)N[C@@H](CC(=O)O)C(=O)NCC(=O)N[C@@H](CO)C(=O)N[C@@H](CC(=O)O)C(=O)N[C@@H](CCC(=O)O)C(=O)N[C@@H](CCCCN)C(=O)NCC(=O)N[C@@H](CS)C(=O)N1CCC[C@H]1C(=O)N[C@@H](Cc1ccc(O)cc1)C(=O)N[C@@H](CCCNC(=N)N)C(=O)N[C@H](C(=O)O)[C@@H](C)O (H-CPASYFQCRNNNHCYPMEWRCDGFQDCEDGSDEKGCPYRT-OH)
